Laboratory results: patent publication US6525089B1, “Pharmaceutical composition containing decursin” (Binex Co., Ltd., priority 1998, dated 2003)

Test system: U-937 cells
Experiment: Phagocytosis test
Assay type: cell-based, human
Conditions: 1 × 10^−7M, incubated 4 days
Method: U-937 cells were plated on a cell culture dish at a concentration of 2×10^5 cells/ml in a medium containing 10^−7M decursin and incubated in a 5% CO2 incubator at 37° C.
In the phagocytosis test, 10^6 cells were well stirred and pelleted by centrifugation at 2000 rpm for 5 minutes. 1 ml of 0.2% serum free medium solution in polystyrene particle were added to the pellets, swayed and incubated at 37° C. for 4 hours. After being washed with phosphate buffered saline (PBS) three times, cell pellets were harvested and then about 200 μl of DPBS was added. The solution was lightly swayed and checked under a microscope to observe a minimum number of 200 cells. The number of cells containing the particles was calculated by percentage.
The results of phagocytosis test designed to assess the functional change according to differentiation of U-937 cells was shown in the following Table 8.

Compound: CC(C)=CC(=O)O[C@H]1Cc2cc3ccc(=O)oc3cc2OC1(C)C [decursin]
- Phagocytosis test: cells showing phagocytosis activity: 28.6%
- Phagocytosis test: cells showing phagocytosis activity (listed as Decursin): 28.6 ± 1.2%
